In patent publication EP3057949B1, “SECONDARY ALCOHOL QUINOLINYL MODULATORS OF ROR GAMMA T” (Janssen Pharmaceutica NV, priority 2013, dated 2015):

Target: T1, full-length human RORγt (Homo sapiens, UniProt P51449)
T1 construct: expressed in transfected cells; host or cells: HEK293T
T1 sequence (P51449 1-497 isoform P51449-2): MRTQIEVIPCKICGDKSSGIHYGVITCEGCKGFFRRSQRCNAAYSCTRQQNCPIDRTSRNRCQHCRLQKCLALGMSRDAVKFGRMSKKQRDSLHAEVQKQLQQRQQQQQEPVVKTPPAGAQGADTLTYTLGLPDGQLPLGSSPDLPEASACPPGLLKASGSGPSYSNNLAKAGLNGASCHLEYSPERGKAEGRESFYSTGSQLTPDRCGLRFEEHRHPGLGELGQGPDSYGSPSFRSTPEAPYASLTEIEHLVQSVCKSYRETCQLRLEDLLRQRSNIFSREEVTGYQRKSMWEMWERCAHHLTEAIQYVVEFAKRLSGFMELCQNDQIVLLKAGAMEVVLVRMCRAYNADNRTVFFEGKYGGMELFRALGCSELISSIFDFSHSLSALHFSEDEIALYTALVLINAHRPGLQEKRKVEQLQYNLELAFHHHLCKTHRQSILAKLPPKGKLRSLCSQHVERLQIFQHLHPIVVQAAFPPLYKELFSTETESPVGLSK
Assay: RORγt (full-length human) Reporter Assay (GAL4 luciferase, HEK293T cells)
Format: cell-based
Conditions: for IC50: overnight (16 to 20 hours) incubation, read-out: RORγt (FL) Reporter Assay, IC50
Description: Compounds were assessed for RORgt functional modulation using either the RORgt ligand binding domain (LBD) reporter assay, or the RORgt full-length (FL) reporter assay.
A reporter assay was used to test functional activity of RORγt modulatory compounds on transcriptional activation driven by full-length human RORγt. Cells used in this assay were transiently co-transfected with three different plasmids, one expressing the GAL4-DNA binding domain (DBD)-RORγt fusion protein under control of a CMV promoter (NH2-Gal4-DBD:RORC-COOH in pCMV-BD, Stratagene #211342), and two reporter plasmids - the firefly luciferase reporter under control of a GAL4 promoter (pFR-Luc 2x GAL4) and Renilla luciferase reporter under control of CMV promoter (pRL-CMV, Promega #E2261). The full-length coding sequence was used for human RORγt, i.e., nucleotides 142-1635 of human RORγt, transcript variant 2, NCBI Accession: NM_001001523.1 (SEQ ID NO:1). HEK293T cells were plated at 35000 per well in 96-well plate in medium of MEM with 8.6% FBS. After 18-22 hours incubation, the transfection was carried out by using a PEI solution with 170.5 ng total DNA/well (50 ng pCMV-BD-ROR plus 20 ng of pFR-Luc reporter and 0.5 ng of pRL-CMV reporter plus 100 ng Carrier DNA (Clontech # 630440) for each well). 4-6 hours after transfection, cells were treated with compounds for overnight in the medium with final concentration of FBS 1.1% and DMSO 0.1%. After overnight (16 to 20 hours) incubation, media were removed and cells were lysed with 20 µL 1x Passive Lysis Buffer (Promega) for 10-15 minutes. Luminescence was measured using a BMG LUMIstar OPTIMA plate reader, after addition of 75 µL/well firefly luciferase buffer, followed by 75 µL/well Renilla luciferase buffer. To calculate the effect of compounds on RORγt activity, firefly values were normalized against values of DMSO only and values of reference compound at saturating concentration, then further normalized against Renilla signals. IC50s were generated by plotting final Renilla normalized data against compound concentration and percent inhibition was calculated against DMSO control.

Structure (SMILES) | inhibition at 0.67 µM (HEK-293T, 0.67 µM compound concentration (footnote *), read-out: RORγt (FL) Reporter Assay, % inhibition (values marked *)) [%] | IC50 [nM] | inhibition at 2 µM (HEK-293T, 2 µM compound, read-out: RORγt (FL) Reporter Assay, % inhibition @ 2 µM) [%]
COc1nc2ccc(C(O)c3cnc(C)n3C)cc2c(Cl)c1Cc1ccc(C(F)(F)F)cc1 (single isomer, unassigned) [Example 15b, (4-Chloro-2-methoxy-3-(4-(trifluoromethyl)benzyl)quinolin-6-yl)(1,2-dimethyl-1H-imidazol-5-yl)methanol] | 85 | 91 | 
COc1nc2ccc(C(O)c3cnc(C)n3C)cc2c(Cl)c1Cc1ccc(C(F)(F)F)cc1 (single isomer, unassigned) [Example 15c, (4-Chloro-2-methoxy-3-(4-(trifluoromethyl)benzyl)quinolin-6-yl)(1,2-dimethyl-1H-imidazol-5-yl)methanol] |  | 58 | 96
